The values that follow come from patent US11591243B2, “Industrial process and system for the inactivation of liquid waste” (CRISTALIA PRODUTOS QUIMICOS FARMACEUTICOS LTDA., priority 2018, dated 2023).

Series [1] in a line: Inactivation kinetics by HPLC of high potency APIs with chemical agents. Type of series: physicochemical. As to conditions: chemical agents and analytical methods appropriate for each API; different exposure time; HPLC (FIG. 4). The method, then: The inactivation kinetics by HPLC of high potency APIs bortezomib, decitabine, sunitinib malate, temozolomide and zoledronic acid was evaluated using chemical agents and analytical methods appropriate for each API.

Series [2] in a line: Inactivation kinetics by HPLC of imatinib mesylate liquid waste with hypochlorous acid. It counts as physicochemical. To be noted: 20 mg/mL aqueous solution, 1% hypochlorous acid aqueous solution as inactivation chemical agent. The method, then: The inactivation kinetics by HPLC of a liquid waste comprising 20 mg/mL imatinib mesylate aqueous solution was evaluated using a 1% hypochlorous acid aqueous solution as inactivation chemical agent, as illustrated in FIGS. 2 and 3. It is possible to verify that 10 minutes of exposure were enough for complete inactivation of imatinib mesylate by hypochlorous acid.
The equipment used was a High-Performance Liquid Chromatography-HPLC, Agilent Tech. Model 1260.
Solution A: Prepare a mixture of methanol and acetonitrile (300:200) and homogenize.
Mobile Phase: transfer 1.65 g of sodium dihydrogen phosphate dihydrate to a beaker. Dissolve in 550 mL of purified water and adjust pH to 8.0±0.2 using trimethylamine and homogenize. Add 450 mL of solution A, homogenize and filter using a membrane of 0.45 μm.
Chromatographic Conditions:
Column: Develosil ODS HG-5 (4.6×150 mm, 5 μm)—Phenomenex
Column temperature: 30° C.
Chromatographic time: 50 minutes
Retention time for imatinib: about 18 minutes
Sample temperature: 5° C.

Where a name gives a salt, the structure may show the parent alone.

As for `CC(C)C[C@H](NC(=O)[C@H](Cc1ccccc1)NC(=O)c1cnccn1)B(O)O` [bortezomib], in series [1], the “inactivation by chemical agent action” value is given as “completely inactivated”.

As for `Cc1ccc(NC(=O)c2ccc(CN3CCN(C)CC3)cc2)cc1Nc1nccc(-c2cccnc2)n1` [imatinib mesylate], the “exposure time enough for complete inactivation” value in series [2] is no more than 10 min.

In the case of `CCN(CC)CCNC(=O)c1c(C)[nH]c(/C=C2\C(=O)Nc3ccc(F)cc32)c1C` [sunitinib malate], in series [1], the “inactivation by chemical agent action” value was “completely inactivated”.
